# Reference: PubChem BioAssay (NCI)
#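 Interpolation was linear, between the two tested concentrations surrounding the appropriate level; five concentrations were tested over 48 hours in 96-well plates. The concentration for 50% growth inhibition is given as GI50. TGI: concentration producing complete growth inhibition.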
# Columns and labels:
# Assay in all cases: NCI tumour cell line growth inhibition, 48 h
# HL-60(TB) leukemia = test system: HL-60(TB) leukemia
# UACC-62 melanoma = test system: UACC-62 melanoma
# HCT-15 colon = test system: HCT-15 colon
# NCI-H23 lung = test system: NCI-H23 lung
# ACHN renal = test system: ACHN renal
# CAKI-1 renal = test system: CAKI-1 renal
# NCI-H226 lung = test system: NCI-H226 lung
# SK-MEL-5 melanoma = test system: SK-MEL-5 melanoma
# SNB-19 CNS = test system: SNB-19 CNS
# HT29 colon = test system: HT29 colon
# U251 CNS = test system: U251 CNS
# SR leukemia = test system: SR leukemia
# MALME-3M melanoma = test system: MALME-3M melanoma
# SF-539 CNS = test system: SF-539 CNS
# MDA-MB-231 breast = test system: MDA-MB-231 breast
# M14 melanoma = test system: M14 melanoma
# DU-145 prostate = test system: DU-145 prostate
# NCI-H460 lung = test system: NCI-H460 lung
# SW-620 colon = test system: SW-620 colon
# OVCAR-8 ovarian = test system: OVCAR-8 ovarian
# 786-0 renal = test system: 786-0 renal
# KM12 colon = test system: KM12 colon
# TK-10 renal = test system: TK-10 renal
# OVCAR-4 ovarian = test system: OVCAR-4 ovarian
# T-47D breast = test system: T-47D breast
# SK-MEL-2 melanoma = test system: SK-MEL-2 melanoma
# HCT-116 colon = test system: HCT-116 colon
# K-562 leukemia = test system: K-562 leukemia
# OVCAR-5 ovarian = test system: OVCAR-5 ovarian
# CCRF-CEM leukemia = test system: CCRF-CEM leukemia
# SK-OV-3 ovarian = test system: SK-OV-3 ovarian
# MCF7 breast = test system: MCF7 breast
# PC-3 prostate = test system: PC-3 prostate
# RXF 393 renal = test system: RXF 393 renal
# EKVX NSCLC = test system: EKVX NSCLC
# UO-31 renal = test system: UO-31 renal
# RPMI-8226 leukemia = test system: RPMI-8226 leukemia
# NCI-H522 lung = test system: NCI-H522 lung
# HOP-92 NSCLC = test system: HOP-92 NSCLC
# SF-268 CNS = test system: SF-268 CNS
# HOP-62 NSCLC = test system: HOP-62 NSCLC
# HCC-2998 colon = test system: HCC-2998 colon
# A549 NSCLC = test system: A549 NSCLC
# IGROV1 ovarian = test system: IGROV1 ovarian
# NCI/ADR-RES ovarian = test system: NCI/ADR-RES ovarian
# COLO 205 colon = test system: COLO 205 colon
# SF-295 CNS = test system: SF-295 CNS
# SK-MEL-28 melanoma = test system: SK-MEL-28 melanoma
# UACC-257 melanoma = test system: UACC-257 melanoma
# MDA-MB-435 = test system: MDA-MB-435
# OVCAR-3 ovarian = test system: OVCAR-3 ovarian
# HS 578T breast = test system: HS 578T breast
# MOLT-4 leukemia = test system: MOLT-4 leukemia
# SN12C renal = test system: SN12C renal
# BT-549 breast = test system: BT-549 breast
smiles,measurement,setting,value
CC(C)(C)n1cc(-c2ccnc(NCCNS(=O)(=O)c3cccc4ccccc34)c2)c(-c2cccc(F)c2)n1,GI50,HL-60(TB) leukemia,17.5 µM
same,TGI,HL-60(TB) leukemia,44.5 µM
same,GI50,UACC-62 melanoma,17.3 µM
same,TGI,UACC-62 melanoma,47.7 µM
same,GI50,HCT-15 colon,6 µM
same,TGI,HCT-15 colon,24.9 µM
same,GI50,NCI-H23 lung,14.9 µM
same,TGI,NCI-H23 lung,59.1 µM
same,GI50,ACHN renal,18.9 µM
same,TGI,ACHN renal,49 µM
same,GI50,CAKI-1 renal,16 µM
same,TGI,CAKI-1 renal,30.8 µM
same,GI50,NCI-H226 lung,12.2 µM
same,TGI,NCI-H226 lung,43.4 µM
same,GI50,SK-MEL-5 melanoma,11.9 µM
same,TGI,SK-MEL-5 melanoma,24.9 µM
same,GI50,SNB-19 CNS,34.9 µM
same,TGI,SNB-19 CNS,> 100 µM
same,GI50,HT29 colon,5.25 µM
same,TGI,HT29 colon,23.9 µM
same,GI50,U251 CNS,12.4 µM
same,TGI,U251 CNS,33.4 µM
same,GI50,SR leukemia,9.27 µM
same,TGI,SR leukemia,> 100 µM
same,GI50,MALME-3M melanoma,15.3 µM
same,TGI,MALME-3M melanoma,36.8 µM
same,GI50,SF-539 CNS,16.1 µM
same,TGI,SF-539 CNS,31.7 µM
same,GI50,MDA-MB-231 breast,24.2 µM
same,TGI,MDA-MB-231 breast,> 100 µM
same,GI50,M14 melanoma,11.7 µM
same,TGI,M14 melanoma,48.2 µM
same,GI50,DU-145 prostate,26.7 µM
same,TGI,DU-145 prostate,> 100 µM
same,GI50,NCI-H460 lung,20 µM
same,TGI,NCI-H460 lung,56.7 µM
same,GI50,SW-620 colon,16.6 µM
same,TGI,SW-620 colon,42.3 µM
same,GI50,OVCAR-8 ovarian,26.7 µM
same,TGI,OVCAR-8 ovarian,> 100 µM
same,GI50,786-0 renal,2.44 µM
same,TGI,786-0 renal,6.75 µM
same,GI50,KM12 colon,17.9 µM
same,TGI,KM12 colon,55.8 µM
same,GI50,TK-10 renal,18.3 µM
same,TGI,TK-10 renal,40.5 µM
same,GI50,OVCAR-4 ovarian,14.6 µM
same,TGI,OVCAR-4 ovarian,53.7 µM
same,GI50,T-47D breast,4.22 µM
same,TGI,T-47D breast,47.8 µM
same,GI50,SK-MEL-2 melanoma,21.4 µM
same,TGI,SK-MEL-2 melanoma,57.9 µM
same,GI50,HCT-116 colon,4.62 µM
same,TGI,HCT-116 colon,19.2 µM
same,GI50,K-562 leukemia,5.9 µM
same,TGI,K-562 leukemia,82.2 µM
same,GI50,OVCAR-5 ovarian,23.7 µM
same,TGI,OVCAR-5 ovarian,69.9 µM
same,GI50,CCRF-CEM leukemia,8.38 µM
same,TGI,CCRF-CEM leukemia,> 100 µM
same,GI50,SK-OV-3 ovarian,26 µM
same,TGI,SK-OV-3 ovarian,> 100 µM
same,GI50,MCF7 breast,16.3 µM
same,TGI,MCF7 breast,59.6 µM
same,GI50,PC-3 prostate,4.71 µM
same,TGI,PC-3 prostate,54.4 µM
same,GI50,RXF 393 renal,12.4 µM
same,TGI,RXF 393 renal,30.2 µM
same,GI50,EKVX NSCLC,17.2 µM
same,TGI,EKVX NSCLC,> 100 µM
same,GI50,UO-31 renal,10.4 µM
same,TGI,UO-31 renal,59.8 µM
same,GI50,RPMI-8226 leukemia,6.2 µM
same,TGI,RPMI-8226 leukemia,44.9 µM
same,GI50,NCI-H522 lung,15.5 µM
same,TGI,NCI-H522 lung,44.5 µM
same,GI50,HOP-92 NSCLC,2.74 µM
same,TGI,HOP-92 NSCLC,21.2 µM
same,GI50,SF-268 CNS,40.3 µM
same,TGI,SF-268 CNS,> 100 µM
same,GI50,HOP-62 NSCLC,17.2 µM
same,TGI,HOP-62 NSCLC,46.3 µM
same,GI50,HCC-2998 colon,13.2 µM
same,TGI,HCC-2998 colon,37.9 µM
same,GI50,A549 NSCLC,16.7 µM
same,TGI,A549 NSCLC,76.6 µM
same,GI50,IGROV1 ovarian,18.6 µM
same,TGI,IGROV1 ovarian,64.3 µM
same,GI50,NCI/ADR-RES ovarian,21.4 µM
same,TGI,NCI/ADR-RES ovarian,> 100 µM
same,GI50,COLO 205 colon,8.98 µM
same,TGI,COLO 205 colon,43.3 µM
same,GI50,SF-295 CNS,22.3 µM
same,TGI,SF-295 CNS,57.3 µM
same,GI50,SK-MEL-28 melanoma,16.6 µM
same,TGI,SK-MEL-28 melanoma,37 µM
same,GI50,UACC-257 melanoma,25 µM
same,TGI,UACC-257 melanoma,86.7 µM
same,GI50,MDA-MB-435,19.1 µM
same,TGI,MDA-MB-435,38.7 µM
same,GI50,OVCAR-3 ovarian,15.4 µM
same,TGI,OVCAR-3 ovarian,30.4 µM
same,GI50,HS 578T breast,16.7 µM
same,TGI,HS 578T breast,46 µM
same,GI50,MOLT-4 leukemia,10 µM
same,TGI,MOLT-4 leukemia,> 100 µM
same,GI50,SN12C renal,13.7 µM
same,TGI,SN12C renal,29 µM
same,GI50,BT-549 breast,10.6 µM
same,TGI,BT-549 breast,26.7 µM
